# Results: patent US11001563B2, “SSAO inhibitor” (SHANDONG DANHONG PHARMACEUTICAL CO., LTD., priority 2017, dated 2021)
# Columns and labels:
# [1] = target: VAP-1/SSAO (Homo sapiens (Human), UniProt Q16853); test: Human VAP-1 enzyme activity assay (Amplex Red Monoamine Oxidase kit); assay type: biochemical; conditions: 10 nM VAP-1 enzyme, 30 min preincubation, benzylamine substrate; read-out: Human Recombinant VAP-1/SSAO Enzyme Inhibitory Activity IC50
# Protocol: Human VAP-1 enzyme activity assay:
# The inhibition of the sample on VAP-enzyme activity was measured by using an Amplex® Red Monoamine Oxidase kit (Invitrogen #A12214). 100 nL of the gradiently-diluted to-be-tested compound (solvent DMSO) was added to a 384-well plate. 25 μL of 10 nM VAP-1 enzyme solution was added and incubated for 30 minutes at room temperature. A substrate mixture of VAP-1 enzyme (200 μM Amplex Red, 1 U/mL HRP, 1 mM Benzylamine) was added and incubated for 60 minutes at room temperature. After the incubation, the fluorescent signal was read with a microplate reader Envision (excitation light wavelength 530-560 nm, emission light wavelength 590 nm). The fluorescence signal value after the background signal was removed was analyzed by Prism software, and the IC50 of the sample against the VAP-1 enzyme was calculated.
# [2] = Compound pharmacokinetic evaluation in SD rats; assay type: in vivo; conditions: male, Sprague-Dawley, rat, plasma
# Protocol: Experimental purpose: compound pharmacokinetics were tested in SD rats
# Sprague Dawley rats (male, 200-300 g, 7-9 weeks old, Shanghai Slack)
# Experimental procedure: the pharmacological characteristics of the compound after intravenous and oral administration were tested in rodents by standard protocol, candidate compounds in the experiment was prepared into clear solutions to be administered to the rats in a single intravenous injection and orally. The intravenous and oral solvents were a certain proportion of an aqueous hydroxypropyl 3-cyclodextrin solution or a physiological saline solution. Whole blood samples within 24 hours were collected, and centrifuged at 3000 g for 15 minutes, the supernatant was separated to obtain plasma samples, 4 times volume of acetonitrile solution containing internal standard was added to precipitate protein, centrifuging was conducted to take the supernatant, equal volume of water was added and centrifuging was conducted to the supernatant to be sampled. The LC-MS/MS analysis method was used to quantitatively analyze the plasma concentration, and the pharmacokinetic parameters such as peak concentration, peak time, clearance rate, half-life, area under the drug concentration-time curve, and bioavailability were calculated.
# [3] = test system: CCl4-induced chronic liver fibrosis; test: Oral CCl4-induced chronic liver fibrosis male C57BL/6 model; assay type: in vivo, C57BL/6 mice; conditions: oral daily for 28 days, in words
# Protocol: The therapeutic effect of compounds on an oral CCl4-induced chronic liver fibrosis male C57BL/6 model was tested. Male C57BL/6 mice, 7-8 weeks old; Experimental method: Male C57BL/6 mice were orally administered from the day CCl4 was put for modeling, and administered daily. Continuous administration was conducted for 28 days. The animals were fasted for at least 6 hours on the next day after the last administration. Animal weight was measured during euthanasia and all animals were euthanized under the guidance of the KCl Animal Euthanasia SOP. Non-anticoagulant venous blood of mice was collected from the ocular venous plexus. The whole blood was allowed to stand at room temperature for 30 minutes, and centrifuged at 5000 rpm for 5 minutes, and the serum was separated and placed in a 1.5 ml EP tube and stored at -80° C. After the whole body of the animal was perfused with hypothermic saline, the liver was taken and subjected to tissue gross image acquisition. The left lobe of the liver was divided into 4 equal parts and put into 4 tissue cryotubes for liquid nitrogen freezing, and then transferred to -80 OC for storage. The rest of the liver tissue was fixed in 10% neutral formalin fixative. […] HE staining was subjected to double-blind score by two pathological readers, and the area of hepatic fibrosis was analyzed for sirius-red stained sections by digital pathology.
# [4] = target: hERG potassium channel (Homo sapiens (Human), UniProt Q12809); test: Inhibition test of hERG potassium ion channel (automatic patch clamp, CHO-hERG cells); assay type: cell-based
# Protocol: The effect of the to-be-tested compound on the potassium ion channel of hERG was detected by a fully automatic patch clamp method.
# The cells stably expressing hERG potassium channel used in the experiment were obtained from CHO-hERE of Aviva Biosciences, and CHO-hERG was cultured in 5% CO2 at 37° C.
# CHO-hERG cells prepared for the experiment were cultured for at least two days, and the cell density reached 75% or more. Prior to the start of the experiment, cells were digested with TrypLE and then resuspended in extracellular fluid to collect the cells.
# The to-be-tested compound and the positive control Amitriptyline were dissolved in DMSO to a certain concentration of the stock solution, and then diluted according to different gradients, and finally added to the extracellular fluid in a certain ratio, and diluted to a concentration to be measured. Visual inspection was performed to see if there was any precipitation before the start of the experiment. Finally, the concentration of DMSO in the to-be-tested solution and the positive control Amitriptyline should not exceed 0.3%.
# The clamping potential was kept at −80 mv, first a voltage stimulation of −50 mv was given for 80 ms to record the cell leakage current value, and then was depolarized to +20 mv to be maintained for 4800 ms, the channel of hERG was open, and then repolarized to −50 mv to be maintained 5000 ms, hERG tail current was led out and recorded, and finally, the voltage was returned to the clamping potential of −80 mv to be maintained for 3100 ms. The above voltage stimulation was repeated once every 15000 ms.
# hERG QPatch^HTX experiment was performed at room temperature. A whole cell protocol, a voltage stimulation protocol and a compound detection protocol were established on the software of QPatch Assay Software 5.2 (Sophion Bioscience).
# First, 30 repeated set voltage stimulations were performed, which was the baseline area for subsequent analysis, followed by the addition of 5 μl of extracellular fluid, repeated for three times. The concentration of each compound added in sequence was repeated three times in a volume of 5 μl. The cells were incubated for at least 5 min at each test concentration. During the entire recording process, the indicators needed to meet the data analysis acceptance criteria. If the standard was not met, the cells would not be included in the analysis scope, and the compounds would be retested. The above recording process was automatically operated by Qpatch analysis software. […]
# In each complete current record, based on the percentage of peak current in the negative control, the percent inhibition of the concentration of each compound can be calculated. […]
# Sequence of hERG potassium channel (Q12809 whole entry): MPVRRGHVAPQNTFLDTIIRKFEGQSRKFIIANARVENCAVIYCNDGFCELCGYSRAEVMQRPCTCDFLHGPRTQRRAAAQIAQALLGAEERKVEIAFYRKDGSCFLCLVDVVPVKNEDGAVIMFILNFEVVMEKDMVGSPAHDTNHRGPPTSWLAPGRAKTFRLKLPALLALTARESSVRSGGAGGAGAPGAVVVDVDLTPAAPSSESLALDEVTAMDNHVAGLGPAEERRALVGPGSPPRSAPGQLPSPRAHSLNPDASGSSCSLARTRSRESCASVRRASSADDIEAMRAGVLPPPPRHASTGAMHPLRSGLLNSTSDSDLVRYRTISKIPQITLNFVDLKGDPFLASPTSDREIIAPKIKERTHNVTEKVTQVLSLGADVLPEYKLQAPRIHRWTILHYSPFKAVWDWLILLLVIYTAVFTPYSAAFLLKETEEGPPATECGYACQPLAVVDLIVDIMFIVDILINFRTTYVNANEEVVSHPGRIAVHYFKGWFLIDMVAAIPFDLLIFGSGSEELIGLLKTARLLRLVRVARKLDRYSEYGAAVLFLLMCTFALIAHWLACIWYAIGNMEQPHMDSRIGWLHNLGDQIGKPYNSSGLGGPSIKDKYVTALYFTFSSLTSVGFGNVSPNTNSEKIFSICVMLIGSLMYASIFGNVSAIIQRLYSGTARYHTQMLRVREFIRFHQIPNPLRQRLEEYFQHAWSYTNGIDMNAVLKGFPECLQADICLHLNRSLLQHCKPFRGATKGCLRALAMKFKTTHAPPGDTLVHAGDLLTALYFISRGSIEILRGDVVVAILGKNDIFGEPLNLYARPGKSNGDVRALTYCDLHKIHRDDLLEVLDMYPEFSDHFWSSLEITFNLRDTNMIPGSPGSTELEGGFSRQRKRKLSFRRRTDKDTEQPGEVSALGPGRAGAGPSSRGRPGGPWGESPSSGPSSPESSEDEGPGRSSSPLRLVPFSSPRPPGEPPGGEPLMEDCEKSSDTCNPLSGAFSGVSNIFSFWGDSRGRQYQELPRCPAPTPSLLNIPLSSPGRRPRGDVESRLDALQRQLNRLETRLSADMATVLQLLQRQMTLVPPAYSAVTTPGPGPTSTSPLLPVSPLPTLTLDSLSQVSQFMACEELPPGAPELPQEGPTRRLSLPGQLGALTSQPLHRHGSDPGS
# Sequence of VAP-1/SSAO (Q16853 whole entry): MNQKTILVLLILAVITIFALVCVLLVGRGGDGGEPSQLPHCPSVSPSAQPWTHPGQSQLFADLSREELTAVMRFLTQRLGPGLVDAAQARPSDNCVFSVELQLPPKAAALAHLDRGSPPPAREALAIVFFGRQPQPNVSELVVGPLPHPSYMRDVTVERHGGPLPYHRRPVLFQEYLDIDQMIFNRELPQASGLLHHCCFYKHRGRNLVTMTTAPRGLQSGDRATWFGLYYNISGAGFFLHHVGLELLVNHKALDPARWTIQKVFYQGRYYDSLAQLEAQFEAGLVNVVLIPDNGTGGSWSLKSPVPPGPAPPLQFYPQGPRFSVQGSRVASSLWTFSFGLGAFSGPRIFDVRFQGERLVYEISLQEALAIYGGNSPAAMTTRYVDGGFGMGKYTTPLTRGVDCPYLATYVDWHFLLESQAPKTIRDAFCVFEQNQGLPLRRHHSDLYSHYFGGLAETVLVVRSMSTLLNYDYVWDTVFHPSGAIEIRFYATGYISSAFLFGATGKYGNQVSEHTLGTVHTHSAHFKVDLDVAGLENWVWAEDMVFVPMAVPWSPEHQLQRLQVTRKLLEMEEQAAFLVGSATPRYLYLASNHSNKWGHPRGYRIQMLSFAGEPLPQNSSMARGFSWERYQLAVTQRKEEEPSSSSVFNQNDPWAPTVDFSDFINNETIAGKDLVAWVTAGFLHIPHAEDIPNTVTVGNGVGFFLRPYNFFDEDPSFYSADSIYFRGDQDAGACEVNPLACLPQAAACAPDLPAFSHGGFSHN
smiles,measurement,setting,value
Cl.Cn1nc(-c2ccc(OC/C(=C/F)CN)cc2)nc1C(F)F [WX126],IC50,[1],0.2 nM
same,Tmax,"[2]; oral, read-out: Peak Time Tmax",1.5 h
same,bioavailability,"[2]; po, read-out: Bioavailability F",99%
same,AUC,[2]; read-out: Concentration Integral AUC,9.31 µM·h
same,Cmax,"[2]; single intravenous injection and oral, read-out: Peak Concentration Cmax",2340 nM
same,Effect on liver fibrosis (Sirius-Red staining),[3],obvious improvement effect
same,Effect on liver injury (HE staining score),[3],obvious improvement effect
same,IC50,"[4]; QPatch whole cell patch clamp, CHO-hERG, 0.24-30.00 μM",> 30000 nM
same,Inhibition of hERG potassium current (in words),[4]; conclusion statement,weak inhibition
